Experimental data as given in article PMC8634879, “Design, Synthesis, and Biological Evaluation of Pyrano[2,3-c]-pyrazole–Based RalA Inhibitors Against Hepatocellular Carcinoma” (Frontiers in Chemistry, 2021).
Read-outs that look alike come from different tables or passages of the source.

What was measured:
RalA = biological target: T1, RalA (Homo sapiens, UniProt P11233); assay: ELISA-based RalA activity assay (RalBP1-coated plates, lysates of compound-treated cells); format: biochemical; conditions: for remaining activity at 1 µM: 1 μM compound, % control = activity remained; for IC50: enzymatic inhibition, average of at least three independent replicates ± SD, read-out: Kinase activities (IC50, μM) RalA
T1 construct: expressed in transfected cells; host or cells: HepG2 (from b6; the methods paragraph names no cell line)
T1 sequence (P11233 1-203 limits assumed): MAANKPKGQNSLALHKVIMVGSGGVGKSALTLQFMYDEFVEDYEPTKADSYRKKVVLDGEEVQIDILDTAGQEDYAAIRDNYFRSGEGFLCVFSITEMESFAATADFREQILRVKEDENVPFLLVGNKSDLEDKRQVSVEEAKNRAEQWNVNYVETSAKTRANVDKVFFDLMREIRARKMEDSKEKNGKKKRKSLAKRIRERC
Experimental: (§1) The in vitro RalA/B bioactivity assays were performed following methods outlined in previous reports. ([Yan et al., 2016]; [Zhang et al., 2018]; [Walsh et al., 2019]; [Bum-Erdene et al., 2020]). In brief, the lysates of the test compound or vehicle-treated cells were cleared using cold centrifugation, and supernatants were collected. An RalBP1 solution was added to 96-well plates and incubated for 1–2 h, and then the plates were washed thrice using ELISA buffer. Next, cellular lysates were added, and samples were incubated overnight at 4°C. Then, ice-cold mouse anti-FLAG antibody was added, and samples were incubated for one more hour. After subsequent washing with ELISA buffer thrice, the HRP-conjugated anti-mouse antibody was added, and samples were incubated for another hour. Then, the HRP substrate was added. Antigen–antibody reactions were quenched by the addition of sulfuric acid (2 mol/L). Remaining RalA/B was detected by the OD450 values which were collected by using a plate reader. Cell proliferation assays, colony formation assays, apoptosis assays, GST pulldown, and Western blotting were used following methods outlined in our previous reports. ([Zhou et al., 2015]; [Zhang et al., 2016]; [Yang et al., 2017]; [He et al., 2019]). Autophagy levels and protein immunoblotting were used following the methods mentioned in our previous reports ([Pan et al., 2018]; [Wang et al., 2018]; [Hao et al., 2019]; [Wang et al., 2019]; [Peng et al., 2020]). Detailed experimental procedures are described in supporting materials.

RalB = biological target: T2, RalB (Homo sapiens, UniProt P11234); assay: ELISA-based RalB activity assay (RalBP1-coated plates, lysates of compound-treated cells); format: biochemical; conditions: for remaining activity at 1 µM: 1 μM compound, % control = active (RalBP1-bound) RalB remaining; for IC50: enzymatic inhibition, average of at least three independent replicates ± SD, read-out: Kinase activities (IC50, μM) RalB
T2 construct: expressed in transfected cells; host or cells: HepG2 (from b6; the methods paragraph names no cell line)
T2 sequence (P11234 1-203 limits assumed): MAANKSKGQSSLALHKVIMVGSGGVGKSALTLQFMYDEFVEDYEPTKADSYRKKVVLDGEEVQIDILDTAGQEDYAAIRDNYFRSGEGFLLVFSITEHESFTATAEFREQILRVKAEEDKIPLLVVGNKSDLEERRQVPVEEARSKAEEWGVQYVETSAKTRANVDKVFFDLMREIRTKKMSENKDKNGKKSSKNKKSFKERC
Experimental: as §1

HepG2 cells = assay: Cell proliferation assay (MTT), HepG2; format: cell-based; conditions: Homo sapiens
Experimental: (§2) The antibodies recognizing LC3, p62/SQSTM1, RalA, RalB, and GAPDH were purchased from Proteintech (Wuhan, China). HCC cell lines, including HepG2, Hep3B, Huh-7, and SMMC-7721, were obtained from the Chinese Center for Type Culture Collection (Wuhan, China) and cultured in DMEM (Dulbecco’s modified Eagle’s medium) with 10% FBS (fetal bovine serum) and streptomycin. Cytotoxicity assays were performed by using the MTT method as previously described.
as §1

Huh-7 cells = assay: Cell proliferation assay (MTT), Huh-7; format: cell-based; conditions: Homo sapiens
Experimental: as §2, §1

Hep3B cells = assay: Cell proliferation assay (MTT), Hep3B; format: cell-based; conditions: Homo sapiens, average of at least three independent replicates ± SD, read-out: Anti-proliferative activities (IC50, μM) Hep3B
Experimental: as §2, §1

SMMC-7721 cells = assay: Cell proliferation assay (MTT), SMMC-7721; format: cell-based; conditions: Homo sapiens, average of at least three independent replicates ± SD, read-out: Anti-proliferative activities (IC50, μM) SMMC-7721
Experimental: as §2, §1

[1] = HepG2, Table 1, cell proliferation inhibition, read-out: IC50 (μM) HepG2
[2] = HepG2, Table 2, average of at least three independent replicates ± SD, read-out: Anti-proliferative activities (IC50, μM) HepG2
[3] = Table 1, cell proliferation inhibition, read-out: IC50 (μM) Huh7
[4] = Table 2, average of at least three independent replicates ± SD, read-out: Anti-proliferative activities (IC50, μM) Huh-7

Row | Structure (SMILES) | remaining activity at 1 µM (RalA) | IC50 (RalA) | remaining activity at 1 µM (RalB) | IC50 (RalB) | IC50 (HepG2 cells; [1]) | IC50 (HepG2 cells; [2]) | IC50 (Huh-7 cells; [3]) | IC50 (Huh-7 cells; [4]) | IC50 (Hep3B cells) | IC50 (SMMC-7721 cells) | melting point
1 | Cc1ccc(S(=O)(=O)NC2=C(C#N)C(c3ccsc3)c3c(C)nn(-c4ccccc4)c3O2)cc1 (stereo not shown) [4m, N-(5-cyano-3-methyl-1-phenyl-4-(thiophen-3-yl)-1,4-dihydropyrano[2,3-c]-pyrazol-6-yl)-4-methylbenzenesulfonamide] | 45% | 1.7 ± 0.22 µM | 58% | 3.86 ± 0.39 µM | 7.2 ± 0.65 µM | 9.15 µM | > 10 µM | > 10 µM | 9.84 ± 1.37 µM | 9.6 ± 1.05 µM | 67.8 to 68.4 °C
2 | Cc1ccc(S(=O)(=O)NC2=C(C#N)C(c3ccc(C(F)(F)F)cc3)c3c(C)nn(-c4ccccc4)c3O2)cc1 (stereo not shown) [4n, N-(5-cyano-3-methyl-1-phenyl-4-(4-(trifluoromethyl)phenyl)-1,4-dihydropyrano[2,3-c]-pyrazol-6-yl)-4-methylbenzenesulfonamide] | 46% | 1.81 ± 0.19 µM | 59% | 4.11 ± 0.45 µM | 8.46 ± 0.92 µM | 8.46 ± 0.92 µM | 9.58 ± 0.92 µM | 9.58 ± 0.92 µM | > 10 µM | > 10 µM | 109.3 to 110.2 °C
3 | Cc1nn(-c2ccccc2)c2c1C(c1ccc(C(F)(F)F)cc1)C(C#N)=C(NS(=O)(=O)c1cccs1)O2 (stereo not shown) [4o, N-(5-cyano-3-methyl-1-phenyl-4-(4-(trifluoromethyl)phenyl)-1,4-dihydropyrano[2,3-c]-pyrazol-6-yl)thiophene-2-sulfonamide] | 36% | 0.96 ± 0.12 µM | 47% | 1.93 ± 0.26 µM | 5.32 ± 0.61 µM | 5.32 ± 0.61 µM | > 10 µM | > 10 µM | 7.69 ± 0.84 µM | > 10 µM | 55.9 to 56.7 °C
4 | Cc1nn(-c2ccccc2)c2c1C(c1ccc(C(F)(F)F)cc1)C(C#N)=C(NS(=O)(=O)c1ccc(C(F)(F)F)cc1)O2 (stereo not shown) [4q, N-(5-cyano-3-methyl-1-phenyl-4-(4-(trifluoromethyl)phenyl)-1,4-dihydropyrano[2,3-c]-pyrazol-6-yl)-4-(trifluoromethyl)-benzenesulfonamide] | 37% | 1.02 ± 0.09 µM | 39% | 1.16 ± 0.19 µM | 8.65 ± 0.97 µM | 8.65 ± 0.97 µM | 8.42 ± 0.94 µM | 8.42 ± 0.94 µM | 7.76 ± 1 µM | > 10 µM | 153.7 to 154.1 °C
5 | Cc1nn(-c2ccccc2)c2c1C(c1ccc(C(F)(F)F)cc1)C(C#N)=C(NS(=O)(=O)c1ccc(F)cc1F)O2 (stereo not shown) [4r, N-(5-cyano-3-methyl-1-phenyl-4-(4-(trifluoromethyl)phenyl)-1,4-dihydropyrano[2,3-c]-pyrazol-6-yl)-2,4-difluorobenzenesulfonamide] | 30% | 0.66 ± 0.08 µM | 43% | 1.49 ± 0.22 µM | 7.56 ± 0.92 µM | 7.56 ± 0.92 µM | 7.39 ± 0.85 µM | 7.39 ± 0.85 µM | 8.3 ± 0.66 µM | > 10 µM | 65.8 to 66.5 °C
